By AUC is commonly meant the area under the concentration-time curve, a measure of exposure. For orientation: EC50 means the midpoint of the concentration-response curve. For orientation: Emax means the greatest response seen or fitted, relative to the assay's reference.

Read-outs that look alike come from different tables or passages of the source.

One data set is described as follows: Mouse pharmacokinetics. The arrangement: concentration or dose not given beside the values. The following applies: Balb/c male mice, blood samples 15 to 1140 min, LC-MS/MS. The data set is classed as in vivo. The protocol: To evaluate the pharmacokinetics test, the invented 18 compounds of examples were determined as follows. Blood samples are collected at 15, 30, 60, 120, 240, 480, 1140 min. Quantification is by using a LC-MS/MS method specific to the selected compound. Pharmacokinetics parameters are calculated using WinNonLinnon compartmental analysis software.

The conditions of data set [1]: db/db, ob/ob and KK-A(y)mice; cited from earlier work.
The conditions of data set [2]: in vivo; cited from earlier work.
In data set [3] the test system is hepatic stellate cells (HSC). The following applies: cultured HSCs; cited from earlier work.
For data set [4] the following is noted: multiple rodent models; cited from earlier work.
A further data set deals with T1, human FXR (Homo sapiens, UniProt Q96RI1).
T1 construct: expressed in transfected cells
T1 sequence (Q96RI1 1-486): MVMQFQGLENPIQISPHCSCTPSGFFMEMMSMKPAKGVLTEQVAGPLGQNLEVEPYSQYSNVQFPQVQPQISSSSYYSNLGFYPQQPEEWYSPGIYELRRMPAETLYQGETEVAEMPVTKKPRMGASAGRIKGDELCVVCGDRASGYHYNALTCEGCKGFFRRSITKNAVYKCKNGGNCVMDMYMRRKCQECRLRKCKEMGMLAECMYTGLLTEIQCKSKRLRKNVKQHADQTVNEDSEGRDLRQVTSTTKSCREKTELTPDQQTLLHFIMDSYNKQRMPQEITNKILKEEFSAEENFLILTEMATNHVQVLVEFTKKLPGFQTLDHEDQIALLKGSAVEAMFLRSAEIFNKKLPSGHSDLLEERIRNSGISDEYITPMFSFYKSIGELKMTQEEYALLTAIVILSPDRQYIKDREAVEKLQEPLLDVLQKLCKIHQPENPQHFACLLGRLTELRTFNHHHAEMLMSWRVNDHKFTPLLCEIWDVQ
As to the kind of experiment: FXR reporter assay (cellular FXR activities). The following applies: for EC50: FXR reporter cells, 24 hours incubation, luciferase, read-out: Reporter Cell EC50; for Emax: read-out: Emax (%) (GW4064 Emax = 100%). It counts as cell-based. In outline: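 Reporter cells overexpressing human FXR exposed to compound dilutions for 24 h at 37 °C, 5% CO2. Luciferase signal used to calculate EC50.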
For orientation: In a reporter assay the amount or activity of a reporter protein is the signal.

On to `CC(C)c1onc(-c2c(Cl)cccc2Cl)c1COc1ccc(/C=C/c2cccc(C(=O)O)c2)c(Cl)c1` [WO2000037077 GW4064], for which the “AUC” value in “Mouse pharmacokinetics” is 253.31 ng·h/mL. Further, in data set [1], the insulin sensitivity result is reported as “improved insulin sensitivity” and the plasma glucose levels result is given as “reduced plasma glucose levels”.

Turning to `CC[C@H]1[C@@H](O)[C@@H]2[C@H](CC[C@]3(C)[C@@H]([C@H](C)CCC(=O)O)CC[C@@H]23)[C@@]2(C)CC[C@@H](O)C[C@@H]12` [Compound 6EtCDCA, 6-ethyl-chenodeoxycholic acid], in data set [2], the “impairment of bile flow” value is “fully reverse the impairment of bile flow” and the “liver cell injury caused by the cytotoxic lithocholic acid” value is reported as “protect the hepatocytes against liver cell injury”. In data set [3], the “expression of fibrotic markers such as α-smooth muscle actin and α1(I) collagen” value was “decreased expression of fibrotic markers”. Besides, the hepatic fibrosis result in data set [4] is given as “promote resolution of hepatic fibrosis”.

As for `O=C(O)c1ccc(Cl)c(C#Cc2ccc(OCc3c(-c4c(Cl)cccc4Cl)noc3C3CC3)cc2Cl)c1` [Compound I-28, 4-chloro-3-((2-chloro-4-((5-cyclopropyl-3-(2,6-dichlorophenyl)isoxazol-4-yl)methoxy)phenyl)ethynyl)benzoic acid], the AUC in the data set “Mouse pharmacokinetics” (mouse, read-out: AUC) came out at 1780 ng·h/mL. Further, on human FXR, the EC50 fell in the range of 60 to 200 nM and the Emax was 91%.

Take `Nc1cc(C#Cc2ccc(OCc3c(-c4c(Cl)cccc4Cl)noc3C3CC3)cc2Cl)cc(C(=O)O)c1` [Compound I-25, 3-amino-5-((2-chloro-4-((5-cyclopropyl-3-(2,6-dichlorophenyl)isoxazol-4-yl)methoxy)phenyl)ethynyl)benzoic acid]: in the data set “Mouse pharmacokinetics” (mouse, read-out: AUC), the AUC is 722 ng·h/mL. In addition, on human FXR, the EC50 is 60 to 200 nM and the Emax was 97%.

Source of the values: patent US10988449B2, “Isoxazole derivatives as nuclear receptor agonists and uses thereof” (IL DONG PHARMACEUTICAL CO., LTD., priority 2017, dated 2021).
